Measured values: ChEMBL document CHEMBL1145484, “Evaluation of the metS and murB loci for antibiotic discovery using targeted antisense RNA expression analysis in Bacillus anthracis” (2007)
In brackets after ≈: the same amount, converted by molar mass.

Test system: Bacillus anthracis
Experiment: Antibacterial activity against Bacillus anthracis UM23C1-1
Assay type: functional

Question: For `O=C(O)c1ccc(OCc2nc3ccccc3[nH]2)c(OCc2ccc(Cl)cc2Cl)c1`, which MIC is on record?
Answer: The MIC was 2 mg/L (≈ 4.51 µM).
